Measurements reported in patent US20200255884A1, “METHOD OF DETECTION OF DNA END(S) AND ITS USE” (INTODNA SP. Z O.O., priority 2017, published 2020).

Tested on: HeLa 21-4 cells
Assay: Procedure 1 on HeLa cells in suspension with subsequent isolation of chromatin, fluorescence spectrophotometer
Type: cell-based
Settings: H2O2 4 mM, 30 minutes
Protocol: In this Example, HeLa 21-4 cells (obtained from P.R. Cook, University of Oxford) were seeded on 6-well plates and cultured for 48 hours in DMEM supplemented with 10% FBS until the culture reached 100% confluency (number of cells: 1.2×10^6 per 1 well). Next, cells were treated with the DNA damaging agent H2O2 which was added directly to the growth medium (final concentration: 4 mM). The cells were incubated at 37° C. for 30 minutes in the standard cell culture incubator with CO2 level control. The control, untreated cells and the damaged cells (H2O2) were then harvested using 0.5 ml trypsin and transferred to 1.5 ml eppendorf tubes. Afterwards, trypsin was inactivated by adding 0.5 ml DMEM supplemented with 10% FBS. Subsequently, cells were spun down in the table top centrifuge (Eppendorf centrifuge, 5417 C, rotor: F45-30-11) (1700 rpm, 5 minutes, room temperature). The cell pellet was resuspended in PBS and again spun down (this washing step was repeated twice). When the supernatant PBS was discarded, cells were resuspended in the remaining droplet of PBS. Subsequently, ice-cold 70% Et(OH) was added dropwise, and cells were incubated in Et(OH) for 30 minutes in −20° C. Then, the cells were treated according to Procedure 1, wherein steps 1, 3, 4, 9 were omitted, and every washing step and every incubation were followed by centrifugation. BrdU was linked to free ends of DNA using TdT enzyme using APO-BRDU kit (Phoenix Flow Systems, AU: 1001) according to the supplier's instructions. […] The fluorescence signal was generated using Duolink® In Situ Detection Reagents Green (Sigma, DUO92014). […]
The level of fluorescence intensity of the cell extract obtained from untreated control cells and the H2O2 damaged cells was measured using a fluorescence spectrophotometer (Hitachi F-7000 supplied with Xe lamp). The fluorescence intensity was measured for 30 s (excitation 480 nm, emission 520 nm).

## OO [H2O2]
Cell extract
  fluorescence intensity per 1 ng of DNA: 3.2±0.3×10^−4 a.u.
  flurescence signal per 1 ng of DNA: 3.2 ± 0.3 × 10^−4 a.u./ng
Extract volume 40 μl, excitation 480 nm, emission 520 nm
  fluorescence signal: 0.046 ± 0.005 a.u.
